For data set [1], the system named is Plasmodium falciparum 3D7 asexual blood stage. Briefly: microbe, parasite or virus in culture.
Data set [2] has as its system T. cruzi C4 β-galactosidase reporter parasite in MRC 5SV2 host cells. Particulars: cited from earlier work.
Data set [3] relates to L. donovani MHOM/IN/80/DD8 intracellular amastigotes. The experiment in a line: Leishmania donovani intracellular amastigote assay in THP-1 cells. Format: cell-based. Particulars: Leishmania donovani, THP-1, intracellular amastigotes.
Data set [4] concerns T. b. brucei 427 bloodstream trypanosomes. Briefly: T. b. brucei resazurin viability assay. The class given is cell-based, Trypanosoma brucei brucei.
The subject of the next data set is HEK293 cells. Briefly: HEK293 resazurin cell cytotoxicity assay. Particulars: Homo sapiens.
For data set [5], the system named is L. infanium (macrophages). Further details: method as in Pbox supporting information. Particulars: ref Pbox supporting information; cited from earlier work.
For another data set, the system named is HepG2. Particulars: cited from earlier work.
The test system of the next data set is T. brucei rhodesiense. Particulars: ref Pbox supporting information, cited from earlier work; for IC50: read-out: T .b. rohdensie Pbox IC50.
A further data set relates to T. brucei brucei. To be noted: ref Pbox supporting information, cited from earlier work.
Data set [6] concerns T. cruzi intracellular amastigotes. The experiment in a line: Intracellular anti-Trypanosoma cruzi image-based assay (amastigotes). Format: cell-based. To be noted: for IC50: Trypanosoma cruzi.
Data set [7] has as its system NF54-pfs16-LUC-GFP stage IV gametocytes. The experiment in a line: Plasmodium falciparum late stage gametocyte (LSG) image-based assay. To be noted: Plasmodium falciparum, NF54, read-out: Pf Stage IV GAMS Discovery Biology IC50, stage IV gametocytes. Format: cell-based.
Setting [8] is: 3D7, read-out: Antiplasmodial IC50 (ABS), PBox compounds, P. falciparum 3D7.
The mark [9] stands for this setting: ref Pbox supporting information, read-out: T. cruzi Pbox IC50.
The mark [10] stands for this setting: some values marked *, read-out: L, donovani Discovery Biology IC50.
Setting [11] is: Trypanosoma brucei; read-out: T b.brucei Discovery Biology IC50.
Where [12] appears, read: HEK293, read-out: HEK % Inhibition 20uM/IC50 Discovery Biology.
Setting [13] is: HepG2, ref PBox supporting information.
[14] abbreviates: read-out: T.b. brucei Pbox IC50.
[15] abbreviates: 3D7, read-out: Pf 3D7 Discovery Biology IC50, P. falciparum 3D7 asexual blood stage.
Where [16] appears, read: HEK293, read-out: HEK % Discovery Biology IC50.
The mark [17] stands for this setting: 7 days exposure, ref PBox supporting information, read-out: T. cruzi IC50 in the PBox supporting information file.
Where [18] appears, read: intracellular amastigotes, read-out: T cruzi Discovery Biology IC50.
[19] abbreviates: PBox compounds, intracellular amastigotes, 48 h exposure, read-out: IC50 T. cruzi (Discovery Biology).

SMILES strings stand for the structures. Like-named read-outs stand apart in the source and are kept apart here. Where only a bound is given, the exact number is not on record here.

As to `O=C(Nc1ccc2c(c1)B(O)OC2)c1ccccc1C(F)(F)F` [MMV652003], the IC50 is 920 nM in data set [1] (setting [8]); 270 nM in [2] (setting [9]); 1250 nM in data set [3] (setting [10]); 110 nM in data set [4] (setting [11]); 1410 nM in data set [5]; 230 nM in the data set on T. brucei rhodesiense. Further, the IC50 with T. brucei brucei (setting [14]) was 150 nM. Moreover, in the data set on HEK293 cells (setting [12]), the inhibition at 20 µM is 78%. Further, the “HepG2 PBox CC20” value with HepG2 (setting [13]) is 400 nM.
As to `CNC(=O)c1nn(C)c2c1C(C)(C)Cc1cnc(Nc3ccc(N4CCN(C)CC4)cc3)nc1-2` [MMV676602], the IC50 in data set [1] (setting [15]) was 3170 nM; in data set [2] (setting [9]), 1050 nM; in [3] (setting [10]), 1430 nM; in data set [4] (setting [11]), 170 nM; with HEK293 cells (setting [16]), 1300 nM; in data set [5], 850 nM. Besides, the IC50 in the data set with T. brucei rhodesiense and in the data set on T. brucei brucei (setting [14]) was less than 130 nM in each case. Besides, the “HepG2 PBox CC20” value in the data set on HepG2 is less than 260 nM.
With `N=C(N)Nc1ccc(-c2ccc(-c3ccc(NC(=N)N)cc3Cl)o2)c(Cl)c1` [MMV688179], the IC50 in [1] (setting [8]) is 590 nM; in [2] (setting [17]), less than 1000 nM; in [2] (setting [9]), 290 nM; in data set [4] (setting [11]) it was 5680 nM; with HEK293 cells (setting [12]) it was more than 20000 nM; in data set [5], 1010 nM. In addition, the figures for the IC50 (in the data set on T. brucei rhodesiense; in the data set with T. brucei brucei (setting [14]); in [7]) were 230 nM, 1030 nM and 4100 nM, respectively. Further, the “HepG2 PBox CC20” value with HepG2 (setting [13]) was 6800 nM. Also, the “activity against T. cruzi in the Discovery Biology assay” value in data set [6] is reported as “lack of activity”. In addition, the “activity against T. cruzi at 8 μM in the Discovery Biology assay” value in data set [6] is “no activity”.
As for `Cc1nn(C)c(C)c1NS(=O)(=O)c1c(Cl)cc(-c2ccnc(N3CCNCC3)c2)cc1Cl` [MMV688180], the IC50 in [1] (setting [15]) is 630 nM; in data set [2] (setting [9]) it was 850 nM; in data set [4] (Trypanosoma brucei, read-out: T b.brucei Discovery Biology IC50), 10 nM; in the data set on HEK293 cells (setting [16]) it was 660 nM; in data set [5], 1010 nM; in the data set on T. brucei rhodesiense, less than 130 nM. Further, the figures for the IC50 (in the data set with T. brucei brucei (setting [14]); in [6] (read-out: T cruzi Discovery Biology IC50)) were less than 130 nM and 2910 nM, respectively. In addition, the “HepG2 PBox CC20” value in the data set with HepG2 (setting [13]) was 45.4 nM.
On to `N=C(N)Nc1ccc(-c2ccc(-c3ccc(NC(=N)N)c(Cl)c3)o2)cc1Cl` [MMV688271], for which the IC50 in data set [1] (setting [8]) was 1210 nM; in data set [2] (setting [17]) it was less than 1000 nM; in data set [2] (setting [9]), 660 nM; in [3] (setting [10]), 3310 nM; in data set [4] (setting [11]) it was 520 nM; in the data set on HEK293 cells (setting [12]), more than 20000 nM. Besides, the IC50 is 10200 nM in data set [5], 200 nM in the data set on T. brucei rhodesiense and 600 nM with T. brucei brucei (setting [14]). Also, in the data set with HepG2 (setting [13]), the “HepG2 PBox CC20” value is 13500 nM. In data set [6], the “activity against T. cruzi in the Discovery Biology assay” value is “lack of activity”. The “activity against T. cruzi at 8 μM in the Discovery Biology assay” value in [6] is “no activity”.
Take `NCCN(C(=O)c1ccc(Cl)cc1Cl)c1ccc(OCc2ccc(Cl)cc2)cc1` [MMV688371]: the IC50 in data set [2] (setting [9]) is 620 nM; in data set [4] (setting [11]), 240 nM; in the data set with HEK293 cells (setting [12]) it was more than 20000 nM; in data set [5], 630 nM; with T. brucei rhodesiense it was less than 130 nM; in the data set with T. brucei brucei (setting [14]) it was less than 130 nM. Besides, the IC50 in [6] (setting [18]) turned out to be 4350 nM. In the data set on T. brucei rhodesiense, the “activity against T. brucei rhodesiense” value is on record as “demonstrated activity”.
Regarding `O=C(Nc1ccc(F)c(-c2nc3cc(-c4ccccc4)cnc3[nH]2)c1)N1CCCC1` [MMV688372], the IC50 in data set [2] (setting [9]) was less than 130 nM; in data set [3] (PBox compounds, read-out: IC50 L. donovani (Discovery Biology)), 1150 nM; in [3] (setting [10]), 1510 nM; in data set [4] (setting [11]), 20 nM; with HEK293 cells (setting [16]), 4600 nM; in data set [5] it was 160 nM. The IC50 in the data set on T. brucei rhodesiense was less than 130 nM; in the data set with T. brucei brucei (setting [14]), less than 130 nM; in data set [6] (setting [18]), 190 nM.
For the compound `CCCCN(CCCC)c1c(C#N)cc(S(=O)(=O)Nc2ccccc2)cc1C#N` [MMV688467], the IC50 was 820 nM in [2] (setting [9]); 1150 nM in [4] (setting [11]); more than 20000 nM with HEK293 cells (setting [12]); 13600 nM in data set [5]; 240 nM in the data set on T. brucei rhodesiense; 260 nM in the data set on T. brucei brucei (setting [14]). In data set [6] (setting [19]), the IC50 came to 3980 nM. Further, the “HepG2 PBox CC20” value in the data set on HepG2 (setting [13]) was 11900 nM.
In the case of `CCc1ccccc1-n1c(C)cn2c3c(=O)n(C(C(=O)OC)C(C)C)c(=O)n(C)c3nc12` (stereo not shown) [MMV688550], the IC50 was 2480 nM in data set [1] (setting [8]); 990 nM in [2] (setting [9]); 130 nM in data set [4] (setting [11]); more than 20000 nM in the data set with HEK293 cells (setting [12]); more than 32000 nM in data set [5]; less than 130 nM in the data set on T. brucei rhodesiense. For the same compound, the IC50 in the data set with T. brucei brucei (setting [14]) was less than 130 nM; in data set [6] (setting [18]), 640 nM. The “selectivity index (SI) T. brucei brucei versus HEK293” value in data set [4] (HEK293) is given as more than 154. In addition, the “HepG2 PBox CC20” value in the data set on HepG2 (setting [13]) is 44300 nM. In data set [6] (HEK293), the “selectivity index (SI) T. cruzi versus HEK293” value is listed as more than 31.
On to `Cc1nn2c(=O)c3c([nH]c2c1-c1ccc(Cl)cc1)CCCC3` [MMV688776], for which the IC50 was less than 1000 nM in data set [2] (setting [17]); 720 nM in [2] (setting [9]); 1790 nM in [4] (setting [11]); more than 20000 nM in the data set with HEK293 cells (setting [12]); 44000 nM in data set [5]; 140 nM in the data set with T. brucei rhodesiense. Also, the IC50 with T. brucei brucei (setting [14]) is 500 nM. Besides, the “activity against T. cruzi at 8 μM in the Discovery Biology assay” value in data set [6] was “no activity”.
For the compound `O=C(NCCc1ccn(-c2ccccc2)n1)C1CCCCC1` [MMV688795], the IC50 in data set [2] (setting [9]) is 740 nM; in data set [4] (setting [11]), 270 nM; in the data set with HEK293 cells (setting [12]), more than 20000 nM; in data set [5] it was more than 64000 nM; in the data set on T. brucei rhodesiense, less than 130 nM; with T. brucei brucei (setting [14]), 150 nM. In addition, the IC50 in data set [6] (setting [18]) came to 930 nM.
As for `O=C(NCc1nnc2n1CCCCC2)c1ccc(-c2ccc(F)cc2)o1` [MMV688796], the IC50 in data set [2] (setting [9]) was 2070 nM; in data set [4] (setting [11]) it was 230 nM; in the data set with HEK293 cells (setting [12]), more than 20000 nM; in [5], more than 64000 nM; in the data set on T. brucei rhodesiense, 130 nM; in the data set with T. brucei brucei (setting [14]), 100 nM. Further, the IC50 in data set [6] (setting [18]) stood at 1520 nM. For the same compound, in the data set on T. brucei rhodesiense, the “activity against T. brucei rhodesiense” value is “demonstrated activity”.
Turning to `CC1CCCCN1C(=O)NCCc1coc(-c2ccc(F)cc2)n1` (stereo not shown) [MMV688797], the IC50 in data set [2] (setting [9]) was 480 nM; in data set [4] (setting [11]) it was 130 nM; in the data set with HEK293 cells (setting [12]) it was more than 20000 nM; in data set [5], more than 64000 nM; in the data set on T. brucei rhodesiense it was 110 nM; in the data set with T. brucei brucei (setting [14]), 130 nM. Also, the IC50 in data set [6] (setting [18]) is 370 nM.
As for `Cc1ccc(S(=O)(=O)Nc2ccc(CN3CCN(C(=O)c4cccc(C#N)c4)CC3)cc2)cc1` [MMV689028], the IC50 is 1200 nM in [2] (setting [17]); 240 nM in data set [4] (Trypanosoma brucei; PBox compounds; read-out: IC50 T. brucei brucei (Discovery Biology)); more than 20000 nM in the data set on HEK293 cells (setting [12]); 32000 nM in data set [5]; 120 nM in the data set with T. brucei rhodesiense; 140 nM in the data set with T. brucei brucei (read-out: T. brucei brucei IC50, PBox). For the same compound, the IC50 in data set [6] (setting [19]) came to 670 nM. In the data set with T. brucei rhodesiense, the “activity against T. brucei rhodesiense” value is “demonstrated activity”.
On to `COc1ccc(S(=O)(=O)Nc2ccc(CN3CCN(C(=O)c4cccc(C#N)c4)CC3)cc2)cc1` [MMV689029], for which the IC50 in data set [2] (setting [9]) was 2700 nM; in [4] (setting [11]), 1080 nM; in the data set with HEK293 cells (setting [12]), more than 20000 nM; in data set [5], 52200 nM; with T. brucei rhodesiense, 400 nM; with T. brucei brucei (setting [14]), 500 nM. In addition, the IC50 in [6] (setting [18]) stood at 1390 nM. Moreover, the “activity against T. brucei rhodesiense” value in the data set with T. brucei rhodesiense is “demonstrated activity”.
